Results published in patent publication US8519003B2, “Phenoxyphenylamidines as fungicides” (priority 2007, dated 2013).

Tests used:
[1] = logP determination (acidic / HCOOH and neutral); conditions: for chromatographic logP: acidic, HCOOH (formic acid)
[2] = tested on: Erysiphe graminis f. sp. hordei; experiment: Erysiphe test (barley)/protective; type: in vivo; conditions: protective, active compound concentration 500 ppm, evaluation 7 days after inoculation
Description: Erysiphe Test (Barley)/Protective [table] To produce a suitable preparation of active compound, 1 part by weight of N-ethyl-N-methyl-N′-[4-phenoxy-2,5-xylyl]formamidine (according to formula (1)) is mixed with the stated amounts of solvent and emulsifier, and the concentrate is diluted with water to the desired concentration. To test for protective activity, young cereal plants are sprayed with the active compound preparation at the stated application rate. 1 day after the treatment, the plants are inoculated with spores of Erysiphe graminis f. sp. hordei. The plants are then placed in a greenhouse at 70% relative atmospheric humidity and a temperature of 18° C. Evaluation is carried out 7 days after the inoculation. 0% means an efficacy which corresponds to that of the control, whereas an efficacy of 100% means that no infection is observed.

[3] = tested on: Uromyces appendiculatus; experiment: Uromyces test (bean)/protective; type: in vivo; conditions: protective, active compound concentration 10 ppm, evaluation 10 days after inoculation
Description: (§1) Uromyces Test (Bean)/Protective [table] To produce a suitable preparation of active compound, 1 part by weight of N-ethyl-N-methyl-N′-[4-phenoxy-2,5-xylyl]formamidine (according to formula (1)) is mixed with the stated amounts of solvent and emulsifier, and the concentrate is diluted with water to the desired concentration. To test for protective activity, young plants are sprayed with the active compound preparation at the stated application rate. After the spray coating has dried on, the plants are inoculated with an aqueous spore suspension of the bean rust pathogen Uromyces appendiculatus and then remain in an incubation cabin at about 20° C. and 100% relative atmospheric humidity for 1 day. The plants are then placed in a greenhouse at about 21° C. and a relative atmospheric humidity of about 90%. Evaluation is carried out 10 days after the inoculation. 0% means an efficacy which corresponds to that of the control, whereas an efficacy of 100% means that no infection is observed.

[4] = tested on: Podosphaera leucotricha; experiment: Podosphaera test (apple)/protective; type: in vivo; conditions: protective, active compound concentration 100 ppm, evaluation 10 days after inoculation
Description: as §1, with “Podosphaera” for “Uromyces”, “(Apple)/Protective” for “(Bean)/Protective”, “apple mildew” for “bean rust”, “Podosphaera leucotricha.” for “Uromyces appendiculatus and then remain in an incubation cabin at about 20° C. and 100% relative atmospheric humidity for 1 day.”, “23°” for “21°”, “70%.” for “90%.”

[5] = tested on: Sphaerotheca fuliginea; experiment: Sphaerotheca test (cucumber)/protective; type: in vivo; conditions: protective, active compound concentration 100 ppm, evaluation 7 days after inoculation
Description: Sphaerotheca Test (Cucumber)/Protective [table] To produce a suitable preparation of active compound, 1 part by weight of N-ethyl-N-methyl-N′-[4-phenoxy-2,5-xylyl]formamidine (according to formula (1)) is mixed with the stated amounts of solvent and emulsifier, and the concentrate is diluted with water to the desired concentration. To test for protective activity, young plants are sprayed with the active compound preparation at the stated application rate. After the spray coating has dried on, the plants are inoculated with an aqueous spore suspension of Sphaerotheca fuliginea. The plants are then placed in a greenhouse at about 23° C. and a relative atmospheric humidity of about 90%. Evaluation is carried out 7 days after the inoculation. 0% means an efficacy which corresponds to that of the control, whereas an efficacy of 100% means that no infection is observed.

chromatographic logP [1]	logP [1]	Structure (SMILES)	efficacy [2]	efficacy [3]	efficacy [4]	efficacy [5]
1.92	–	Cc1cc(Oc2ccccc2)c(C)cc1N [4-phenoxy-2,5-xylidine]	–	–	–	–
1.87	4.67	CCN(C)C=Nc1cc(C)c(Oc2ccccc2)cc1C [(1), N-ethyl-N-methyl-N′-[4-phenoxy-2,5-xylyl]formamidine]	≥ 70%	≥ 70%	≥ 70%	≥ 70%
